Measurements published in the Deep4Chem optical property database.
Each block holds one compound with its values, some of them ahead of it.

Experiment: photoluminescence quantum yield (fraction); solvent given as SMILES
[1] = in c1cc(-n2c3ccccc3c3ccccc32)cc(-n2c3ccccc3c3ccccc32)c1
[2] = in O=P(c1ccccc1)(c1ccccc1)c1ccccc1Oc1ccccc1P(=O)(c1ccccc1)c1ccccc1

photoluminescence quantum yield (in ClCCl): 0.86
Compound: O=S1(=O)c2ccc(-c3ccc(-n4c5ccccc5c5ccccc54)cc3)cc2C2(c3ccccc3-c3ccccc32)c2cc(-c3ccc(-n4c5ccccc5c5ccccc54)cc3)ccc21

photoluminescence quantum yield (in ClCCl): 0.26
Compound: C(#Cc1cc(C#Cc2ccccc2)c(C#Cc2ccccc2)c(C#Cc2ccccc2)c1C#Cc1ccccc1)c1ccccc1

photoluminescence quantum yield (in ClCCl): 0.058
Compound: Cc1cc2c3ccccc3sc2c2[nH]c3ccccc3c12

photoluminescence quantum yield (in CC#N): 0.005
photoluminescence quantum yield (in CO): 0.015
photoluminescence quantum yield (in ClCCl): 0.37
Compound: CCCCCCN(CCCCCC)c1ccc(C#Cc2ccc(C#N)cc2)cc1

photoluminescence quantum yield (in C1CCCCC1): 0.03
photoluminescence quantum yield (in C1CCOC1): 0.44
photoluminescence quantum yield (in C1COCCO1): 0.28
photoluminescence quantum yield (in CC#N): 0.28
photoluminescence quantum yield (in CCCCCC): 0.03
photoluminescence quantum yield (in CO): 0.03
photoluminescence quantum yield (in ClC(Cl)Cl): 0.14
Compound: F[B-]1(F)n2ccnc2-c2cccc[n+]21

photoluminescence quantum yield (in C1COCCO1): 0.95
photoluminescence quantum yield (in CC#N): 0.95
photoluminescence quantum yield (in CO): 0.9
photoluminescence quantum yield (in ClCCl): 0.91
Compound: COC(=O)CNC(=O)c1nc2c(N(C)C)nc(N(C)C)nc2n1Cc1ccccc1

photoluminescence quantum yield (in ClCCl): 0
Compound: C(#Cc1ncc(-c2ccccc2)o1)c1ccco1

photoluminescence quantum yield (in ClCCl): 0.74
Compound: Cc1ccc(-c2cc(/C=C/c3ccc(N(c4ccccc4)c4ccccc4)cc3)c(-c3ccc(C)cc3)cc2/C=C/c2ccc(N(c3ccccc3)c3ccccc3)cc2)cc1

photoluminescence quantum yield (in C1CCOC1): 0.04
photoluminescence quantum yield (in ClCCl): 0.02
Compound: CCCCCCCc1ccc(C2=[N+]3C(=C4c5cc(OCC(CC)CC)c(-c6ccc(CCCCCCC)o6)n5[B-](F)(F)[n+]5nnn(c54)[B-]3(F)F)C=C2OCC(CC)CC)o1

photoluminescence quantum yield (in CS(C)=O): 0.68
Compound: COc1cccc2oc(-c3cc4c(OC)cccc4oc3=O)cc12

photoluminescence quantum yield (in C1CCCCC1): 0.012
photoluminescence quantum yield (in CC#N): 0.005
photoluminescence quantum yield (in CCO): 0.006
photoluminescence quantum yield (in CCOC(C)=O): 0.007
photoluminescence quantum yield (in CO): 0.005
photoluminescence quantum yield (in OCC(F)(F)F): 0.006
Compound: Cc1ccc(C2=C3C=C(I)C=[N+]3[B-](F)(F)n3cc(I)cc32)cc1

photoluminescence quantum yield (in CC#N): 0.095
photoluminescence quantum yield (in c1ccccc1): 0.077
Compound: COc1ccc(-c2cc(-c3ccc(OC)cc3)c3c(N)nc(N4CCCC4)c(C#N)c3n2)cc1

photoluminescence quantum yield (in CO): 0.55
photoluminescence quantum yield (in O): 0.3
Compound: CC1(C)C(/C=C/C=C/C=C/C=C2/N(CCCCCC(=O)O)c3ccc(S(=O)(=O)[O-])cc3C2(C)C)=[N+](CCCCS(=O)(=O)[O-])c2ccc(S(=O)(=O)[O-])cc21

photoluminescence quantum yield (in CCO): 0.618
photoluminescence quantum yield (in ClCCl): 0.724
photoluminescence quantum yield (in O): 0.282
Compound: CC[N+](CC)=c1ccc2cc3c(oc-2c1)-c1ccc(N(C)C)cc1CC3

photoluminescence quantum yield (in CC#N): 0.02
Compound: Cc1cc(=O)c2c(ccc3ccc(O)cc32)o1

photoluminescence quantum yield (in C1CCOC1): 0.061
Compound: F[Si-](F)(c1ccccc1)(c1ccccc1)c1cccc2ccccc12

photoluminescence quantum yield (in CCO): 0.011
Compound: CC(C)=CCN1C(=O)c2cccc3c2c(cc2nc(C)oc23)C1=O

photoluminescence quantum yield (in C1COCCO1): 0.355
Compound: COC(=O)c1ccc(/C=C2\C=C(c3ccc(OC)c(OC)c3)OC2=O)cc1

photoluminescence quantum yield (in ClCCl): 0.26
Compound: c1ccc(-c2cc3c(-c4ccccc4)c4cccc5c(-c6ccccc6)cc6c(-c7ccccc7)c7cccc2c7c3c6c54)cc1

photoluminescence quantum yield (in ClCCl): 0.17
Compound: CCCCCCCCCCCCN1C(=O)c2c(c3ccc4cc(-c5ccc(-c6ccccc6)cc5)c(OC)cc4c3c3c2ccc2cc(-c4ccc(-c5ccccc5)cc4)c(OC)cc23)C1=O

photoluminescence quantum yield (in C1CCOC1): 1
Compound: N#Cc1ccc(C2=CC3=c4cc(-c5ccc(C#N)cc5)c5nc(C(F)(F)C(F)(F)C(F)(F)F)nc6c(-c7ccc(C#N)cc7)cc(c4c65)C4=CC(c5ccc(C#N)cc5)=C5N=C(C(F)(F)C(F)(F)C(F)(F)F)N=C2C5C43)cc1 (stereo not drawn)

photoluminescence quantum yield (in CO): 0.82
photoluminescence quantum yield (in CS(C)=O): 1
photoluminescence quantum yield (in ClC(Cl)Cl): 0.95
photoluminescence quantum yield (in c1ccccc1): 1
Compound: CCC1=C(C)C(=O)n2c1cc1c(CCC(=O)OC)c(C)c(C)n1c2=O

photoluminescence quantum yield (in CO): 0.16
Compound: c1ccc(N(c2ccccc2)c2ccc(-c3ncc(-c4ccc(-c5cnc(-c6ccc(N(c7ccccc7)c7ccccc7)cc6)s5)s4)s3)cc2)cc1

photoluminescence quantum yield (in ClCCl): 0.005
Compound: CC(=O)c1c(N[C@@H](Cc2ccc(O)cc2)C(=O)O)c2ccc(N(C)C)cc2oc1=O

photoluminescence quantum yield (in CCO): 0.033
photoluminescence quantum yield (in ClCCl): 0.87
Compound: CCN(CC)c1ccc2cc(C#N)/c(=N\C(=O)c3ccccc3)oc2c1

photoluminescence quantum yield (in ClCCl): 0.00053
Compound: COc1cc2c(cc1OC)C1=C[C@H](c3ccc(C)cc3)C3(C(C#N)=C(C#N)N1CC2)c1cc(Cl)ccc1-c1ccc(Cl)cc13

photoluminescence quantum yield (in CC#N): 0.11
photoluminescence quantum yield (in CCCCCC): 0.15
photoluminescence quantum yield (in CCOC(C)=O): 0.14
photoluminescence quantum yield (in CO): 0.14
photoluminescence quantum yield (in ClCCl): 0.19
Compound: COC1=[N+]2C(=C(c3ccccc3)c3ccc(OC)n3[B-]2(F)F)C=C1SC#N

photoluminescence quantum yield (in c1ccccc1): 0.084
Compound: Cc1nc2c(ccc3ccc(N(C)C)cc32)oc1=O

Second part, the compound before the results:

Compound: CN(C)c1ccc(/C=C/C=C/c2nc3ccccc3o2)cc1
photoluminescence quantum yield (in CC#N): 0.0055
photoluminescence quantum yield (in CCCCCC): 0.0176
photoluminescence quantum yield (in CCCCO): 0.0045
photoluminescence quantum yield (in CCCO): 0.0045
photoluminescence quantum yield (in CCO): 0.0048
photoluminescence quantum yield (in CN(C)C=O): 0.007
photoluminescence quantum yield (in CO): 0.0045
photoluminescence quantum yield (in Cc1ccccc1): 0.0078
photoluminescence quantum yield (in ClCCl): 0.0048
photoluminescence quantum yield (in OCC(O)CO): 0.0359
photoluminescence quantum yield (in OCCO): 0.0088

Compound: CCCCOC(=O)c1cc(Oc2ccc(OC)cc2)c2c3c(Cl)cc4c5c(cc(Cl)c(c6c(Oc7ccc(OC)cc7)cc(C(=O)OCCCC)c1c26)c53)C(=O)N(c1c(C(C)C)cccc1C(C)C)C4=O
photoluminescence quantum yield (in Cc1ccccc1): 0.55

Compound: c1ccc(-c2nnc(-c3ccc(N4c5ccccc5N(c5ccccc5)c5ccccc54)cc3)o2)cc1
photoluminescence quantum yield (in Cc1ccccc1): 0.12
photoluminescence quantum yield [1]: 0.45

Compound: CCCCCCc1ccc(-n2c3c(c4c2c2c(n4-c4ccc(CCCCCC)cc4)-c4cccc(OC)c4NB2c2ccccc2)B(c2ccccc2)Nc2c(OC)cccc2-3)cc1
photoluminescence quantum yield (in Cc1ccccc1): 0.62

Compound: CCOc1ccc2c(-c3nc(-c4ccccc4Cl)no3)cc(=O)oc2c1
photoluminescence quantum yield (in CCO): 0.52
photoluminescence quantum yield (in ClC(Cl)Cl): 0.26

Compound: CN(C)c1ccc(-c2cc(-c3ccccc3)nn2C)cc1
photoluminescence quantum yield (in ClCCl): 0.06

Compound: c1ccc(-n2c3ccccc3c3c2c2ccccc2n3-c2ccccc2)cc1
photoluminescence quantum yield (in Cc1ccccc1): 0.404

Compound: COc1ccc(-c2csc(/C(C#N)=C/c3ccccc3Cl)n2)cc1
photoluminescence quantum yield (in CC#N): 0.062

Compound: CCn1c2ccccc2c2cc(-c3cc(-c4ccc5c(c4)c4ccccc4n5CC)nc(OC)n3)ccc21
photoluminescence quantum yield (in C1CCOC1): 0.48
photoluminescence quantum yield (in CCOC(C)=O): 0.76
photoluminescence quantum yield (in CN(C)C=O): 0.69
photoluminescence quantum yield (in Cc1ccccc1): 0.68
photoluminescence quantum yield (in ClCCl): 0.69

Compound: N#C/C=C/c1ccc2ccc3cccc4ccc1c2c34
photoluminescence quantum yield (in C1CCOC1): 0.72
photoluminescence quantum yield (in C1COCCO1): 0.63
photoluminescence quantum yield (in CC#N): 0.32
photoluminescence quantum yield (in CC(C)=O): 0.62
photoluminescence quantum yield (in CCCCCC): 0.53
photoluminescence quantum yield (in CCOC(C)=O): 0.62
photoluminescence quantum yield (in CO): 0.44
photoluminescence quantum yield (in Cc1ccccc1): 0.55

Compound: c1ccc(-c2ccc(-c3ccccc3)cc2)cc1
photoluminescence quantum yield (in C1COCCO1): 0.55

Compound: COc1ccc2ncccc2c1
photoluminescence quantum yield (in CC#N): 0.071
photoluminescence quantum yield (in CCCC#N): 0.075
photoluminescence quantum yield (in Cc1ccccc1): 0.014

Compound: O=C1NC(=O)c2ccc3c4ccc5c6c(ccc(c7ccc1c2c73)c64)C(=O)N(c1ccc(O)cc1)C5=O
photoluminescence quantum yield (in CN(C)C=O): 0.15

Compound: c1ccc(-c2nnc(-c3ccc(-n4c5ccccc5c5ccccc54)cc3)o2)cc1
photoluminescence quantum yield (in Cc1ccccc1): 0.57

Compound: CCN(CC)c1ccc2cc(/C(Cl)=C/C=C/C(=C(C#N)C#N)c3ccc4c(c3)c3ccccc3n4CC)c(=O)oc2c1
photoluminescence quantum yield (in CC(C)=O): 0.019
photoluminescence quantum yield (in CCOC(C)=O): 0.052
photoluminescence quantum yield (in CN(C)C=O): 0.042
photoluminescence quantum yield (in CS(C)=O): 0.018
photoluminescence quantum yield (in Cc1ccccc1): 0.091
photoluminescence quantum yield (in ClCCl): 0.096

Compound: CC[N+](CC)=c1ccc2c(-c3ccccc3C(=O)O)c3oc4cc(N)ccc4c3oc-2c1
photoluminescence quantum yield (in CCO): 0.778
photoluminescence quantum yield (in ClCCl): 0.726
photoluminescence quantum yield (in O): 0.126

Compound: COc1ccccc1-c1nc2c3ccccc3c3ccccc3c2o1
photoluminescence quantum yield (in Cc1ccccc1): 0.53

Compound: O=C1c2ccc(-c3ccc(N(c4ccc(-c5ccccc5)cc4)c4ccc(-c5ccccc5)cc4)cc3)cc2C(=O)c2ccc(-c3ccc(N(c4ccc(-c5ccccc5)cc4)c4ccc(-c5ccccc5)cc4)cc3)cc21
photoluminescence quantum yield (in Cc1ccccc1): 0.62
photoluminescence quantum yield (in c1ccc2c(c1)c1ccccc1n2-c1ccc(-c2ccc(-n3c4ccccc4c4ccccc43)cc2)cc1): 0.76

Compound: Cc1ccc2c(c1)c1cc(C)ccc1n2-c1c(-n2c3ccccc3c3ccccc32)cc(-c2nc(-c3ccccc3)nc(-c3ccccc3)n2)cc1-n1c2ccccc2c2ccccc21
photoluminescence quantum yield [2]: 0.98

Compound: O=C(c1ccc(-n2c3ccccc3c3cc(-n4c5ccccc5c5ccccc54)ccc32)cc1)c1ccc(-n2c3ccccc3c3cc(-n4c5ccccc5c5ccccc54)ccc32)cn1
photoluminescence quantum yield (in Cc1ccccc1): 0.38
photoluminescence quantum yield [2]: 0.73

Compound: CC1(C)c2ccccc2N(c2ccc3nc4c5ccc(N6c7ccccc7C(C)(C)c7ccccc76)cc5c5cc(N6c7ccccc7C(C)(C)c7ccccc76)ccc5c4nc3c2)c2ccccc21
photoluminescence quantum yield (in c1cc(-c2cccc(-n3c4ccccc4c4ccccc43)c2)cc(-n2c3ccccc3c3ccccc32)c1): 0.89

Compound: CCCCCCN1C(=O)c2cccc3cc(/N=C\c4ccc5c(c4)c4ccccc4n5CC)cc(c23)C1=O
photoluminescence quantum yield (in ClC(Cl)Cl): 0.021

Compound: CCN(CC)c1ccc2cc(-c3nc4c5ccccc5c5ccccc5c4n3-c3ccc(C(C)(C)C)cc3)c(=O)oc2c1
photoluminescence quantum yield (in ClCCl): 0.97

Compound: N#C/C(=C(/C#N)c1ccc(-c2ccncc2)cc1)c1ccc(-c2ccncc2)cc1
photoluminescence quantum yield (in ClCCl): 0.002

Compound: CN(C)c1[se]c(-c2ccccc2)nc1-c1ccccc1
photoluminescence quantum yield (in ClC(Cl)Cl): 0.029

Compound: CC(C)(C)c1ccc2c(c1)c1cc(C(C)(C)C)ccc1n2-c1ccc(-c2ccc3c(c2)C2(c4cc(-c5ccc(-n6c7ccc(C(C)(C)C)cc7c7cc(C(C)(C)C)ccc76)cc5)ccc4-3)c3ccccc3S(=O)(=O)c3ccccc32)cc1
photoluminescence quantum yield (in ClCCl): 0.88
photoluminescence quantum yield [1]: 0.83
